# Test results as given in patent publication US7939509B2, “Partial and full agonists of A1 adenosine receptors” (Gilead Sciences, Inc., priority 2002, dated 2011).
# Legend:
# Type in all cases: in vivo, rat
# [1] = test system: awake rats; test: Insulin dose response to reduce FFA with and without Compound A in awake rats
# Experimental: FIG. 6 graphically represents how Compound A potentates the effect of insulin in reducing FFA levels. Shown are the dose response curves for the effect of insulin to reduce FFA obtained in the absence and presence of Compound A (0.5 mg/kg) in awake rats. Both insulin and Compound A were given via IP injection. Each data point is the mean±SEM of the maximal (peak effect) percent decrease in FFA levels from baseline from three to five rats.
# The anti-lipolytic effects of Compound A were studied in awake rats. Animals were fasted overnight before experimental use. On the day of the experiment, animals were put in metabolic cages and left undisturbed to acclimate to the environment for 1-2 hrs. An infusion set (21 G×¾″, 0.8×19 mm U.T.W., 3½″, 9 cm tubing, volume 0.15 ml) was connected to the arterial catheter for blood sampling. A 1% sodium citrate saline solution was used to flush the lines. A pre-treatment blood sample was obtained from each animal to determine baseline values for FFA and TG. Compound A was given via oral gavage, sc injection, iv injection, or iv infusion, as described, for each different series of experiments. Blood samples were collected into serum separator tubes (Becton Dickinson, Franklin Lakes, N.J.) at pre-determined times, Blood was allowed to clot, and then centrifuged at 8000 rpm for 4 min at 4° C. The serum was stored at −80° C. and was thawed at 4° C. for determinations of FFA and TG contents.
# The effect of insulin (0.005-1 U/kg) to reduce serum FFA was determined in the absence and presence of a single dose (0.5 mg/kg) of Compound A (FIG. 6). Baseline FFA levels before insulin administration in vehicle and Compound A treated groups were 0.84±0.01 and 0.92±0.02 mM, respectively. […] The insulin dose response to reduce FFA levels was then repeated in the presence of Compound A (0.5 mg/kg). Compound A alone (0.5 mg/kg) caused an 18% decrease in FFA levels. The doses of insulin that cause 50% decrease (ED50) in FFA levels in the absence and presence of Compound A were 0.4 and 0.1 U/kg, respectively.
# [2] = test system: awake rats; test: Cardiovascular measurements (heart rate, blood pressure) by telemetry in awake rats
# Experimental: FIG. 7 presents the time-course of the effect of Compound A on (A) heart rate and (B) mean arterial pressure in awake rats as measured by telemetry. Compound A was given at various does (1, 5, and 25 mg·kg) by oral gavage at time 0. Each data point is the mean of individual values from the number of experiments indicated in parenthesis. The initial transient (10 Minutes) increase in heart rate subsequent to the injection of vehicle or Compound A is due to the stress caused by handling of the animals.
# The effects of Compound A on heart rate and blood pressure were determined in a separate group of animals as heart rate is very easily affected in the un-anesthetized animal by animal handling and blood sampling. Rats were instrumented with radiotelemetered transmitters (Data Sciences) at least 3 weeks prior to experimentation. The ECG, blood pressure and temperature were recorded and heart rate calculated using a Dataquest ART Gold system (Version 2.2; Data Sciences Intl). The system consisted of a transmitter, i.e., biopotential sensor (Model TL11M2-C50-PXT), receivers (Model RPC-1), a consolidation matrix (BCM 100), a personal computer (Compaq DeskPro Series 3574) and Dataquest 4 software. Heart rate, blood pressure and temperature were measured at 5-minute intervals. Each recording lasted 10 seconds and all cardiac cycles within this period were averaged.
# [3] = test system: rats fed high fat diet; test: Oral glucose tolerance test after 2 week treatment in high fat diet rats; conditions: 5 mg/kg SC twice a day for 2 weeks, HF rats
# Experimental: Animals were fasted overnight before taking samples. Compound A was given twice daily via a SC injection for 2 weeks at a dose of 5 mg/kg. Data is presented as mean±SEM from number of animals indicated in the parenthesis for each group. […] All experimental procedures were performed under a protocol approved by the IACUC (CV Therapeutics, Inc.) and in accordance with the recommendations set forth in the Guide for the Care and Use of Laboratory Animals published by the National Research Council. Male Sprague-Dawley rats (225-250 gm) with either one or two indwelling catheters (carotid and jugular) were obtained from Charles River Laboratories (Wilmington, Mass.). Animals were housed 1 per cage in a room maintained on a 12 h light/dark cycle (light on 06.00-18.00 h) under constant temperature (22-25° C.) and with ad libitum access to food and water. Rats on normal diet (Chow) were fed standard laboratory chow (12% fat, 60% carbohydrate, and 28% protein) throughout the study, while animals in the high fat (HF) diet group were given a diet (TD88137 from Harlan Teklad, Madison, Wis.) containing 42% fat, 43% carbohydrate, and 15% protein. […] On the day of the experiment, animals were put in metabolic cages and left undisturbed to acclimate to the environment for 1-2 hrs. An infusion set (21 G×¾″, 0.8×19 mm U.T.W., 3½″, 9 cm tubing, volume 0.15 ml) was connected to the arterial catheter for blood sampling. A 1% sodium citrate saline solution was used to flush the lines. A pre-treatment blood sample was obtained from each animal to determine baseline values for glucose, insulin, FFA and TG. Blood samples were collected into plasma and serum separator tubes (Becton Dickinson, Franklin Lakes, N.J.) at pre-determined time points. Oral glucose tolerance test (OGTT) was performed by giving 2 gm/kg of glucose load. […] For chronic experiments Compound A was administered twice a day via subcutaneous injection at a dose of 5 mg/kg for 2 weeks. […] Data form OGTT was analyzed by calculating area under the curve (AUC) using prism graphpad software. […]
smiles,measurement,setting,value
"O[C@@H]1[C@H](O)[C@@H](CSc2ccccc2F)O[C@H]1n1cnc2c(N[C@@H]3CCC[C@H]3O)ncnc21 [Compound A, 2-{6-[((1R,2R)-2-hydroxycyclopentyl)amino]purin-9-yl}(4S,5S,2R,3R)-5-[(2-fluorophenylthio)methyl]oxolane-3,4-diol]",decrease in FFA levels by Compound A alone,[1]; 0.5 mg/kg IP,18%
same,leftward shift of the insulin dose-response to lower FFA,[1]; Compound A 0.5 mg/kg,4 fold
same,decrease in heart rate (calculated as area under the curve),[2]; 25 mg/kg oral gavage,13±1%
same,effect on heart rate on increasing the dose,[2]; 50 mg/kg (data not shown),no further decrease
same,effect on heart rate,[2]; 1 and 5 mg/kg oral gavage,did not have a significant effect
same,effect on blood pressure,"[2]; at the doses used (1, 5, 25 mg/kg oral gavage)",did not have any significant effect
same,glucose levels in OGTT,[3],did not vary
same,total integrated plasma insulin levels (AUC) in OGTT,[3],significantly (p<0.05) lower
